Reference: patent publication US5389643A, “Aminobenzoic acid derivatives useful for treating gastro-intestinal conditions” (Eisai Co., Ltd., priority 1992, dated 1995)
Where a name gives a salt, the structure may show the parent alone. Read-outs that look alike come from different tables or passages of the source. Blank lines part the entries; values can stand above or below the compound they belong to.

How the values were obtained:
[1] = biological target: T1, 2-methylserotonin-induced contraction of the ileum (5-HT3 antagonism) (Cavia porcellus, UniProt O70212); test: Antagonism against 2-methylserotonin-induced contraction or systole of ileum; type: cell-based, guinea pig (Hartley male); conditions: test compound added 30 minutes before 2-methylserotonin, nonterminal ileum, 37° C.; for Kb: read-out: pA2 (converted)
T1 construct: from tissue; host or cells: isolated nonterminal ileum of male Hartley guinea pig
T1 sequence (O70212 20-490): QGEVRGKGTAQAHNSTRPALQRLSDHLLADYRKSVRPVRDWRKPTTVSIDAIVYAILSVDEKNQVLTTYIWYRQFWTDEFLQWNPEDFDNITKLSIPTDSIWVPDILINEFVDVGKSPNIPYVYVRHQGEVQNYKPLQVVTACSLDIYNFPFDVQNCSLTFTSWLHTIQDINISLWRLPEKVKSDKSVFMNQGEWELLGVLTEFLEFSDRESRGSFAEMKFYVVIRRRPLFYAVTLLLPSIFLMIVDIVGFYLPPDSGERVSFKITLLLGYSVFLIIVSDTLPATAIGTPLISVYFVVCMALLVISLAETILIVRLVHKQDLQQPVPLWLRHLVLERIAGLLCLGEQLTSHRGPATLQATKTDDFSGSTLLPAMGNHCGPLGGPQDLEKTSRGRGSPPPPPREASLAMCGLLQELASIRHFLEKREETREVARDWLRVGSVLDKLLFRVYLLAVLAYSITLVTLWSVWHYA
Experimental: Antagonism against 2-methylserotonin-induced contraction or systole of ileum
This experiment was made according to the method of Sanger et al. [see Eur. J. Pharmacol., 159, 113-124 (1989)]. The nonterminal ileum of a Hartley male guinea pig was suspended in the Krebs-Henseleit solution (37° C.) by applying a load of 0.5 g to the end of the ileum and a gaseous mixture comprising 95% of oxygen and 5% of carbon dioxide was passed through the solution. The contraction of the ileum was isometrically determined. After allowing the ileum to stand for one or more hours for stabilization, a solution of a test compound was added to the solution, and after 30 minutes, 2-methylserotonin was noncumulatively added. The pA2 value was calculated from the rightward shift of the dose-response curve of the 2-methylserotonin-induced contraction caused by the test compound according to the method of Rossum et al. [see Arch. Int. Pharmacodyn., 143, 299(1963)]. BRL 24682 was used as a control in this experiment.

[2] = tested on: contraction of guinea pig ileum induced by electrical field stimulation (acetylcholine release); test: Effect of increasing contraction of guinea pig ileum induced by electrical field stimulation; type: cell-based; conditions: electrical field stimulation once per 10 seconds, cumulative addition at intervals of 10 minutes, 37° C., read-out: Min. concn. causing increment of ileal contraction
Experimental: Effect of increasing contraction of guinea pig ileum induced by electrical field stimulation
This experiment was made according to the method of Sanger et al. [see Br. J. Pharmacol., 91, 77-87 (1987)]. The longitudinal muscle of the nonterminal ileum of a guinea pig was separated and vertically suspended in the Krebs-Henseleit solution (37° C.) in a Magnus tube by applying a load of 0.5 g to the end of the muscle. A mixed gas comprising 95% of oxygen and 5% of carbon dioxide was passed through the solution. The contraction of the muscle was isometrically determined. Electrical field stimulation was applied to the muscle by the use of a platinum electrode once per 10 seconds to induce the contraction of the muscle. The contraction was caused through the release of acetylcholine. After the muscle had been stabilized, a solution of a test compound was cumulatively added into the Magnus tube at intervals of 10 minutes. The effect of the test compound is represented by percentage based on the initial contraction. The minimum concentration of each test compound at which an increment was found in the contraction due to the release of acetylcholine is shown in Table 4.

[3] = tested on: gastric emptying function; test: Activity for raising gastric emptying function; type: in vivo, Fischer male rats; conditions: oral (5 ml/kg), one hour before test food, versus control rat
Experimental: Activity for raising gastric emptying function
This experiment was made according to the method of Decktot et al. [see Eur. J. Pharmacol., 147, 313-316 (1988)]. Fischer male rats (weight: 160 to 180 g) were fasted for 18 hours before 3 ml of a test food comprising methylcellulose, beef broth, casein, sugar and corn starch was orally administered to each rat. One hour after the administration, the stomach was extirpated from each rat. The gastric emptying ratio was calculated from the weight of the test food remaining in the stomach. The ratio of rise of the gastric emptying function was determined by comparing the gastiric emptying ratio of a medicated rat with that of a control rat which had not administered any test compounds. Each test compound (5 ml/kg) was orally administered one hour before the administration of the test food. BRL 24682 was used as a control in this experiment.

Compound: CC#CC(C)Oc1cc(N)c(Cl)cc1C(=O)N[C@H]1C[C@H]2CC[C@@H](C1)N2C (single isomer, unassigned; (+)) [Example 36, (+)-endo-4-Amino-5-chloro-N-(8-methyl-8-azabicyclo[3.2.1]oct-3-yl)-2-{(3-pentyn-2-yl)oxy}benzamide hydrochloride]
- Kb [1]: 1.91 nM
- minimal effective concentration ([2]; listed as 36 (-)-isomer, hydrochloride): 0.26 µM

Compound: C#CC(CC)Oc1cc(N)c(Cl)cc1C(=O)N[C@H]1C[C@H]2CC[C@@H](C1)N2C (single isomer, unassigned; (+)) [Example 38, (+)-endo-4-Amino-5-chloro-N-(8-methyl-8-azabicyclo[3.2.1]oct-3-yl)-2-{(1-pentyn-3-yl)oxy}benzamide hydrochloride]
- Kb [1]: 0.955 nM
- Ratio of rise of gastric emptying function ([3]; listed as 38 (+)-isomer, hydrochloride): 20.5%
- minimal effective concentration ([2]; listed as 38 (-)-isomer, hydrochloride): 0.13 µM

Compound: C#CC(CC)Oc1cc(N)c(Cl)cc1C(=O)N[C@H]1C[C@H]2CC[C@@H](C1)N2C (single isomer, unassigned; (-)) [Example 37, (-)-endo-4-Amino-5-chloro-N-(8-methyl-8-azabicyclo[3.2.1]oct-3-yl)-2-{(1-pentyn-3-yl)oxy}benzamide hydrochloride]
- Ratio of rise of gastric emptying function ([3]; listed as 37 (-)-isomer, hydrochloride): 15.3%
- minimal effective concentration ([2]; listed as 37 (+)-isomer, hydrochloride): 0.048 µM

- pA2 [1]: 7.80
Compound: COc1cc(N)c(Cl)cc1C(=O)NC1CC2CCC(C1)N2C (stereo not shown) [BRL 24682, reference compound]
- Ratio of rise of gastric emptying function [3]: 12.9%
- minimal effective concentration [2]: 0.086 µM

Compound: CC#CC(C)Oc1cc(N)c(Cl)cc1C(=O)N[C@H]1C[C@H]2CC[C@@H](C1)N2C (stereo partly drawn) [Example 2, endo-4-Amino-5-chloro-N-(8-methyl-8-azabicyclo[3.2.1]oct-3-yl) -2-{(3-pentyn-2-yl)oxy}benzamide hydrochloride]
- Kb [1]: 2.09 nM
- Ratio of rise of gastric emptying function [3]: 24.5%
- minimal effective concentration ([2]; Cavia porcellus, 10 min): 0.05 µM

Compound: C#CC(CC)Oc1cc(N)c(Cl)cc1C(=O)N[C@H]1C[C@H]2CC[C@@H](C1)N2C (stereo partly drawn) [Example 20, endo-4-Amino-5-chloro-N-(8-methyl-8-azabicyclo[3.2.1]oct-3-yl)-2-{(1-pentyn-3-yl)oxy}benzamide hydrochloride]
- minimal effective concentration ([2]; Cavia porcellus, 10 min): 0.11 µM

Compound: CC#CCOc1cc(N)c(Cl)cc1C(=O)N[C@H]1C[C@H]2CC[C@@H](C1)N2C [Example 22, endo-4-Amino-2-(2-butynyloxy)-5-chloro-N-(8-methyl-8-azabicyclo[3.2.1]oct-3-yl)benzamide hydrochloride]
- minimal effective concentration ([2]; Cavia porcellus, 10 min): > 100 µM

Compound: CC#CCCOc1cc(N)c(Cl)cc1C(=O)N[C@H]1C[C@H]2CC[C@@H](C1)N2C [Example 23, endo-4-Amino-5-chloro-N-(8-methyl-8-azabicyclo[3.2.1]oct-3-yl)-2-(3-pentynyloxy)benzamide hydrochloride]
- minimal effective concentration ([2]; Cavia porcellus, 10 min): > 100 µM

Compound: C#CC(C)Oc1cc(N)c(Cl)cc1C(=O)N[C@H]1C[C@H]2CC[C@@H](C1)N2C (stereo partly drawn) [Example 24, endo-4-Amino-2-{(3-butyn-2-yl)oxy}-5-chloro-N-(8-methyl-8-azabicyclo[3.2.1]oct-3-yl)benzamide hydrochloride]
- Ratio of rise of gastric emptying function [3]: 13.2%
- minimal effective concentration ([2]; Cavia porcellus, 10 min): 0.17 µM

Compound: CCC#CC(CC)Oc1cc(N)c(Cl)cc1C(=O)N[C@H]1C[C@H]2CC[C@@H](C1)N2C (stereo partly drawn) [Example 25, endo-4-Amino-5-chloro-2-{(4-heptyn-3-yl)oxy)-N-(8-methyl-8-azabicyclo[3.2.1]oct-3-yl)benzamide hydrochloride]
- Kb [1]: 0.891 nM
- Ratio of rise of gastric emptying function [3]: 26.3%
- minimal effective concentration ([2]; Cavia porcellus, 10 min): 1 µM

Compound: CCC#CCC(C)Oc1cc(N)c(Cl)cc1C(=O)N[C@H]1C[C@H]2CC[C@@H](C1)N2C (stereo partly drawn) [Example 26, endo-4-Amino-S-chloro-2-{(4-heptyn-2-yl)oxy}-N-(8-methyl-8-azabicyclo[3.2.1]oct-3-yl)benzamide hydrochloride]
- Kb [1]: 0.468 nM
- minimal effective concentration ([2]; Cavia porcellus, 10 min): > 100 µM

Compound: CC#CC(CC)Oc1cc(N)c(Cl)cc1C(=O)N[C@H]1C[C@H]2CC[C@@H](C1)N2C (stereo partly drawn) [Example 27, endo-4-Amino-5-chloro-2-{(2-hexyn-4-yl)oxy}-N-(8-methyl-8-azabicyclo[3.2.1]oct-3-yl)benzamide hydrochloride]
- Kb [1]: 0.407 nM
- Ratio of rise of gastric emptying function [3]: 17.2%
- minimal effective concentration ([2]; Cavia porcellus, 10 min): 0.25 µM

Compound: CCC#CC(C)Oc1cc(N)c(Cl)cc1C(=O)N[C@H]1C[C@H]2CC[C@@H](C1)N2C (stereo partly drawn) [Example 28, endo-4-Amino-5-chloro-2-{(3-hexyn-2-yl)oxy}-N-(8-methyl-8-azabicyclo[3.2.1]oct-3-yl)benzamide hydrochloride]
- minimal effective concentration ([2]; Cavia porcellus, 10 min): > 100 µM

Compound: C#CC(CCC)Oc1cc(N)c(Cl)cc1C(=O)N[C@H]1C[C@H]2CC[C@@H](C1)N2C (stereo partly drawn) [Example 29, endo-4-Amino-5-chloro-2-{(1-hexyn-3-yl)oxy}-N-(8-methyl-8-azabicyclo[3.2.1]oct-3-yl)benzamide hydrochloride]
- Kb [1]: 0.457 nM
- Ratio of rise of gastric emptying function [3]: 20.6%
- minimal effective concentration ([2]; Cavia porcellus, 10 min): 0.26 µM

Compound: CN1[C@@H]2CC[C@H]1C[C@@H](NC(=O)c1cc(Cl)c(N)cc1OCCF)C2 [Example 30, endo-4-Amino-5-chloro-2-(2-fluoroethoxy)-N-(8-methyl-8-azabicyclo[3.2.1]oct-3-yl)benzamide hydrochloride]
- minimal effective concentration ([2]; Cavia porcellus, 10 min): 0.038 µM

Compound: CN1[C@@H]2CC[C@H]1C[C@@H](NC(=O)c1cc(Cl)c(N)cc1OCCCC#N)C2 [Example 31, endo-4-Amino-5-chloro-2-(3-cyanopropoxy)-N-(8-methyl-8-azabicyclo[3.2.1]oct-3-yl)benzamide hydrochloride]
- minimal effective concentration ([2]; Cavia porcellus, 10 min): > 100 µM

Compound: CN1[C@@H]2CC[C@H]1C[C@@H](NC(=O)c1cc(Cl)c(N)cc1OC1CCOCC1)C2 [Example 33, endo-4-Amino-5-chloro-N-(8-methyl-8-azabicyclo[3.2.1]-oct-3-yl)-2-(tetrahydro-4H-pyran-4-oxy)benzamide hydrochloride]
- Kb [1]: 6.17 nM
- minimal effective concentration ([2]; Cavia porcellus, 10 min): 1.8 µM

Compound: C#CCC(C)Oc1cc(N)c(Cl)cc1C(=O)N[C@H]1C[C@H]2CC[C@@H](C1)N2C (stereo partly drawn) [Example 40, endo-4-Amino-5-chloro-N-(8-methyl-8-azabicyclo[3.2.1]oct-3-yl)-2-{(4-pentyn-2-yl)oxy}benzamide hydrochloride]
- Ratio of rise of gastric emptying function [3]: 16.2%
- minimal effective concentration ([2]; Cavia porcellus, 10 min): 0.22 µM

Compound: C#CCCOc1cc(N)c(Cl)cc1C(=O)N[C@H]1C[C@H]2CC[C@@H](C1)N2C [Example 46, endo-4-Amino-2-(3-butynyloxy)-5-chloro-N-(8-methyl-8-azabicyclo[3.2.1]oct-3-yl)benzamide hydrochloride]
- minimal effective concentration ([2]; Cavia porcellus, 10 min): 0.16 µM
